According to patent US20170114049A1, “2,5-DISUBSTITUTED CYCLOPENTANE CARBOXYLIC ACIDS FOR THE TREATMENT OF RESPIRATORY TRACT DISEASES” (BAYER PHARMA AKTIENGESELLSCHAFT, priority 2014, published 2017):

Tests used:
Assay type in all cases: biochemical
MMP-10 = target: T1, MMP-10 (Homo sapiens, UniProt P09238); assay: In vitro MMP-10 inhibition test
T1 construct: purchased R&D Systems 910-MP
From the text: (§1) The MMP-mediated amidolytic cleavage of a suitable peptide substrate leads to an increase in fluorescent light here too. The signal intensity of the fluorescent light is directly proportional to the enzyme activity. The active concentration of a test compound at which half the enzyme is inhibited (50% signal intensity of the fluorescent light) is reported as the […].
(§2) Recombinant MMP-10 (from R&D Systems, 910-MP) is chemically activated in accordance with the manufacturer's instructions using APMA. 1 μl of the test compound to be analysed (as a solution in DMSO, suitable concentrations, for example, 1 nM to 30 μM) is pipetted into 24 μl of activated enzyme (final concentration, for example, 2 nM) in reaction buffer (50 mM Tris/HCl pH 7.5, 10 mM CaCl2, 150 mM NaCl, 0.05% Brij®-35) in a white 384-hole microtiter plate (MTP). The enzymatic reaction is started by adding the intramolecularly quenched Mca-Arg-Pro-Lys-Pro-Val-Glu-Nval-Trp-Arg-Lys(Dnp)-NH2 substrate (final concentration, for example, 10 μM; R&D Systems, ES-002), so as to result in a total test volume of 50 μl. The course of the MMP-10 reaction is measured by measuring the fluorescence intensity (excitation 320 nm, emission 410 nm) over a suitable period of time (for example over 120 min at a temperature of 32° C.).

MMP-9 = target: T2, MMP-9 (Homo sapiens, UniProt P14780); assay: In vitro MMP-9 inhibition test
T2 construct: purchased R&D Systems 911-MP

MMP-1 = target: T3, MMP-1 (Homo sapiens, UniProt P03956); assay: In vitro MMP-1 inhibition test
T3 construct: purchased R&D Systems 901-MP
T3 sequence (P03956 100-469): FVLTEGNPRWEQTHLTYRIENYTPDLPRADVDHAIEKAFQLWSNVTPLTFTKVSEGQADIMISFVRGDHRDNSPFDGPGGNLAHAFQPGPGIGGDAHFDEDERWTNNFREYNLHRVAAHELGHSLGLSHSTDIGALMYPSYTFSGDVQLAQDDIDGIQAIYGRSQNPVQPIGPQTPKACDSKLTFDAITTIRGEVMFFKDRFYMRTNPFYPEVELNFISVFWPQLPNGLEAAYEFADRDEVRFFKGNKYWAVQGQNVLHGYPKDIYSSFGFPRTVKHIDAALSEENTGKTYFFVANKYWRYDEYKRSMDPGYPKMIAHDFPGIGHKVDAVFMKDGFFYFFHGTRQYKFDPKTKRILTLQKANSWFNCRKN
From the text: as §1
as §2, with “MMP-1” for “MMP-10”, “901-MP)” for “910-MP)”, “Mca-Pro-Leu-Gly-Leu-Dpa(Dnp)-Ala-Arg-NH2” for “Mca-Arg-Pro-Lys-Pro-Val-Glu-Nval-Trp-Arg-Lys(Dnp)-NH2”, “ES-001),” for “ES-002),”

mouse MMP-9 = target: T4, mouse MMP-9 (Mus musculus, UniProt P41245); assay: In vitro mouse MMP-9 inhibition test
T4 construct: purchased R&D Systems 909-MP
From the text: as §1
(§3) Recombinant mouse MMP-9 (from R&D Systems, 909-MP) is chemically activated in accordance with the manufacturer's instructions using APMA. 1 μl of the test compound to be analysed (as a solution in DMSO, suitable concentrations, for example, 1 nM to 30 μM) is pipetted into 24 μl of activated enzyme (final concentration, for example, 0.1 nM) in reaction buffer (50 mM Tris/HCl pH 7.5, 10 mM CaCl2, 150 mM NaCl, 0.05% Brij®-35) in a white 384-hole microtiter plate (MTP). The enzymatic reaction is started by adding the intramolecularly quenched Mca-Pro-Leu-Gly-Leu-Dpa(Dnp)-Ala-Arg-NH2 substrate (final concentration, for example, 5 μM; R&D Systems, ES-001), so as to result in a total test volume of 50 μl. The course of the MMP-9 reaction is measured by measuring the fluorescence intensity (excitation 320 nm, emission 410 nm) over a suitable period of time (for example over 120 min at a temperature of 32° C.).

mouse MMP-2 = target: T5, mouse MMP-2 (Mus musculus, UniProt P33434); assay: In vitro mouse MMP-2 inhibition test
T5 construct: purchased R&D Systems 924-MP
From the text: as §1
as §3, with “mouse MMP-2” for “mouse MMP-9”, “Systems, 924-MP)” for “Systems, 909-MP)”, “example, 10” for “example, 5”, “the MMP-2” for “the MMP-9”

mouse MMP-8 = target: T6, mouse MMP-8 (Mus musculus, UniProt O70138); assay: In vitro mouse MMP-8 inhibition test
T6 construct: purchased R&D Systems 2904-MP
T6 sequence (O70138 101-465): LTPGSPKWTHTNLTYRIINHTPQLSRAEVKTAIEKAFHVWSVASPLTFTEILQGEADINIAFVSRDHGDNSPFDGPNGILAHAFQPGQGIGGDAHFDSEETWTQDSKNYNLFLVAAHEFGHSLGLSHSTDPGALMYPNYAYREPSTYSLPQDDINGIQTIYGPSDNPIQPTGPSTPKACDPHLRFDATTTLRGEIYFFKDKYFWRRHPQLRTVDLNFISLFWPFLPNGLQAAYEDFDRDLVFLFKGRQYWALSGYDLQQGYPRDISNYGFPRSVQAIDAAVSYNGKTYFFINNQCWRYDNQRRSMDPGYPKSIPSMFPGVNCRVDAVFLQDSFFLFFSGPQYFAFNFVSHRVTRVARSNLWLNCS

T2 sequence (P14780 107-707 limits assumed): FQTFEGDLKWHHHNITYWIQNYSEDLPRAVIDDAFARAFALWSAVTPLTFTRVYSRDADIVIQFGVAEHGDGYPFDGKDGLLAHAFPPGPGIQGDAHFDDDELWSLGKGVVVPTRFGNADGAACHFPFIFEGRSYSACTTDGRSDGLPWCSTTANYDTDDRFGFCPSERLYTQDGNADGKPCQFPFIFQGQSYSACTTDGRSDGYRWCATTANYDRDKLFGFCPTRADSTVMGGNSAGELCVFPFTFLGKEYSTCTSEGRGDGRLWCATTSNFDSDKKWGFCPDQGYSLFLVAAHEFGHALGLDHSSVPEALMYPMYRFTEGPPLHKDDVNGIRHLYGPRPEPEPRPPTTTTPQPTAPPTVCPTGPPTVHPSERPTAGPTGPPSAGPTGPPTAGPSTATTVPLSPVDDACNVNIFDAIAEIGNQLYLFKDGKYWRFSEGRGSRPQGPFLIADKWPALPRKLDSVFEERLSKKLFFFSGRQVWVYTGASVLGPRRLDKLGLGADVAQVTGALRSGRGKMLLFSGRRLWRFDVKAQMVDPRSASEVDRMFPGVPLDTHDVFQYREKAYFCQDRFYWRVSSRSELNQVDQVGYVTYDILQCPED
T1 sequence (P09238 99-476): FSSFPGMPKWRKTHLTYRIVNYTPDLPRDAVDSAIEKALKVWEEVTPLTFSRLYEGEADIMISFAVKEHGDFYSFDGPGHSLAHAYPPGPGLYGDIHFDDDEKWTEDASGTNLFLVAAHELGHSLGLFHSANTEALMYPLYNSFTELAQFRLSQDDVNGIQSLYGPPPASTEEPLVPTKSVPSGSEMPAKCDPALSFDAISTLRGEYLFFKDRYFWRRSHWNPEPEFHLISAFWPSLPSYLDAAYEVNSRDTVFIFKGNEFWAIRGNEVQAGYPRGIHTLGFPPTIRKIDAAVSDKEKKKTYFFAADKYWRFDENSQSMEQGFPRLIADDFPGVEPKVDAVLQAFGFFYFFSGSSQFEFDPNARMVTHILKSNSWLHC
T5 sequence (P33434 110-662): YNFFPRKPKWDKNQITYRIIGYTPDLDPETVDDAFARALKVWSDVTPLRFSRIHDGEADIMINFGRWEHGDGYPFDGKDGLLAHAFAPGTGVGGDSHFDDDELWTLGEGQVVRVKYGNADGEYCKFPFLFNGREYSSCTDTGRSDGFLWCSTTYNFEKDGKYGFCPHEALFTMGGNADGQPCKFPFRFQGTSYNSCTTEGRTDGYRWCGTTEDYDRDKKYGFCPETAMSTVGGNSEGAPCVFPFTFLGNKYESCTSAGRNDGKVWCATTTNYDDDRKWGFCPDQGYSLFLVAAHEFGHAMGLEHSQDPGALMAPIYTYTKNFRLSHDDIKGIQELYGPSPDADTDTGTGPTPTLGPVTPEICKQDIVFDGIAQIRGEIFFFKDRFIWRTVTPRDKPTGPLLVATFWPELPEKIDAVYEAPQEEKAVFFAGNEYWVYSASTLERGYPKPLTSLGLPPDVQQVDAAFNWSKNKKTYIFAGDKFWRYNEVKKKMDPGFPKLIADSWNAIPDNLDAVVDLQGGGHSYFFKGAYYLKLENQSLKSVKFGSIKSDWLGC
T4 sequence (P41245 108-730): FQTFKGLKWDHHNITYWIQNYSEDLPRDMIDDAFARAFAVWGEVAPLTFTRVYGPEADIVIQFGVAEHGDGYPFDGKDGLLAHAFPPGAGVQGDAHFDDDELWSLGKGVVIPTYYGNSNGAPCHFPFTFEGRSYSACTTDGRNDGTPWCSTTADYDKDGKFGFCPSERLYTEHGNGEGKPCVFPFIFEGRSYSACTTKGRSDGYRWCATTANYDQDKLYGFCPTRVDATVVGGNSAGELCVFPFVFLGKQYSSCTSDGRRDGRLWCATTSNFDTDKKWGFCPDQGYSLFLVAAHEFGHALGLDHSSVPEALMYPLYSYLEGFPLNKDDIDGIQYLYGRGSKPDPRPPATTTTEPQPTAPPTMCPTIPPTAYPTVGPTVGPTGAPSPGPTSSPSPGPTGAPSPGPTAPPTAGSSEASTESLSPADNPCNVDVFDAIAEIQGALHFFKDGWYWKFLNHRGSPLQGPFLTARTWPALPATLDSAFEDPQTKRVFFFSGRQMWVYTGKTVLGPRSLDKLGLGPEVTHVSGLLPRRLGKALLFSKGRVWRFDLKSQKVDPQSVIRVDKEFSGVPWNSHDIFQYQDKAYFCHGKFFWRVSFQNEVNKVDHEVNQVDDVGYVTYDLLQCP

IC50 (MMP-10) [µM]	IC50 (MMP-9) [µM]	IC50 (MMP-1) [µM]	IC50 (mouse MMP-9) [µM]	IC50 (mouse MMP-2) [µM]	IC50 (mouse MMP-8) [µM]	Compound
11	0.12	6.5	–	–	–	O=C(O)[C@H]1[C@H](Cn2nnc3ccc(C(F)(F)F)cc3c2=O)CC[C@@H]1C(=O)c1ccc(OCC2CCOCC2)cc1 (racemic) [Example 7, (+/−)-(1RS,2SR,5RS)-2-{[4-Oxo-6-(trifluoromethyl)-1,2,3-benzotriazin-3(4H)-yl]methyl}-5-[4-(tetrahydro-2H-pyran-4-ylmethoxy)benzoyl]cyclopentanecarboxylic acid]
0.058	0.96	> 40	2.2	0.84	0.15	Cc1ccc2nnn(C[C@@H]3CC[C@H](C(=O)c4ccc(OCCC5CCOCC5)cc4)[C@H]3C(=O)O)c(=O)c2c1 (racemic) [Example 19, (+/−)-(1RS,2SR,5RS)-2-[(6-Methyl-4-oxo-1,2,3-benzotriazin-3(4H)-yl)methyl]-5-{4-[2-(letrahydro-2H-pyran-4-yl)ethoxy]benzoyl}cyclopentanecarboxylic acid]
0.013	0.46	> 40	0.21	0.045	0.054	O=C(O)[C@@H]1[C@@H](Cn2nnc3ccccc3c2=O)CC[C@H]1C(=O)c1ccc(OCCC2CCOCC2)cc1 (single isomer, unassigned) [Example 5, (+)-(1RS,2SR,5RS)-2-[(4-Oxo-1,2,3-benzotriazin-3(4H)-yl)methyl]-5-{4-[2-(tetrahydro-2H-pyran-4-yl)ethoxy]benzoyl}cyclopentanecarboxylic acid]
0.018	0.66	27	1.9	0.64	0.034	O=C(O)[C@@H]1[C@@H](Cn2nnc3ccc(C(F)(F)F)cc3c2=O)CC[C@H]1C(=O)c1ccc(OCCC2CCOCC2)cc1 (single isomer, unassigned) [Example 11, (+)-(1RS,2SR,5RS)-2-{[4-Oxo-6-(trifluoromethyl)-1,2,3-benzotriazin-3(4H)-yl]methyl}-5-{4-[2-(tetrahydro-2H-pyran-4-yl)ethoxy]benzoyl}cyclopentanecarboxylic acid]
0.009	0.15	11	–	–	–	O=C(O)[C@@H]1[C@@H](Cn2nnc3ccc(C(F)(F)F)cc3c2=O)CC[C@H]1C(=O)c1ccc(SCC2CCOCC2)cc1 (single isomer, unassigned) [Example 15, (+)-(1RS,2SR,5RS)-2-{[4-Oxo-6-(trifluoromethyl)-1,2,3-benzotriazin-3(4H)-yl]methyl}-5-{4-[(tetrahydro-2H-pyran-4-ylmethyl)sulphanyl]benzoyl}cyclopentanecarboxylic acid]
0.031	0.37	> 40	0.8	0.34	0.046	Cc1ccc2nnn(C[C@H]3CC[C@@H](C(=O)c4ccc(OCCC5CCOCC5)cc4)[C@@H]3C(=O)O)c(=O)c2c1 (single isomer, unassigned) [Example 20, (+)-(1RS,2SR,5RS)-2-[(6-Methyl-4-oxo-1,2,3-benzotriazin-3(4H)-yl)methyl]-5-{4-[2-(tetrahydro-2H-pyran-4-yl)ethoxy]benzoyl}cyclopentanecarboxylic acid]
0.12	0.45	26	0.56	0.17	0.04	O=C(O)[C@H]1[C@H](Cn2nnc3ccccc3c2=O)CC[C@@H]1C(=O)c1ccc(OCC2CCOCC2)cc1 (stereo in doubt) [Example 1, (+/−)-(1RS,2SR,5RS)-2-[(4-Oxo-1,2,3-benzotriazin-3(4H)-yl)methyl]-5-[4-(tetrahydro-2H-pyran-4-ylmethoxy)benzoyl]cyclopentanecarboxylic acid]
0.08	0.36	10	0.28	0.058	0.021	O=C(O)[C@@H]1[C@@H](Cn2nnc3ccccc3c2=O)CC[C@H]1C(=O)c1ccc(OCC2CCOCC2)cc1 (stereo in doubt) [Example 2, (+)-(1RS,2SR,5RS)-2-[(4-Oxo-1,2,3-benzotriazin-3(4H)-yl)methyl]-5-[4-(tetrahydro-2H-pyran-4-ylmethoxy)benzoyl]cyclopentanecarboxylic acid]
0.17	5	> 40	1.5	0.49	0.37	O=C(O)[C@H]1[C@H](Cn2nnc3ccccc3c2=O)CC[C@@H]1C(=O)c1ccc(OCCC2CCOCC2)cc1 (stereo in doubt) [Example 4, (+/−)-(1RS,2SR,5RS)-2-[(4-Oxo-1,2,3-benzotriazin-3(4H)-yl)methyl]-5-{4-[2-(tetrahydro-2H-pyran-4-yl)ethoxy]benzoyl}cyclopentanecarboxylic acid]
5.1	0.31	8.8	0.93	0.3	0.014	O=C(O)[C@H]1[C@H](Cn2nnc3ccc(C(F)(F)F)cc3c2=O)CC[C@@H]1C(=O)c1ccc(OCCC2CCOCC2)cc1 (stereo in doubt) [Example 10, (+/−)-(1RS ,2S R,5RS)-2-{[4-Oxo-6-(trifluoromethyl)-1,2,3-benzotriazin-3(4H)-yl]methyl}-5-{4-[2-(tetrahydro-2H-pyran-4-yl)ethoxy]benzoyl}cyclopentanecarboxylic acid]

Compound	IC50 (MMP-10) [µM]	IC50 (MMP-9) [µM]	IC50 (MMP-1) [µM]	IC50 (mouse MMP-9) [µM]	IC50 (mouse MMP-2) [µM]	IC50 (mouse MMP-8) [µM]
(+)-(1RS,2SR,5RS)-2-{[4-Oxo-6-(trifluoromethyl)-1,2,3-benzotriazin-3(4H)-yl]methyl}-5-[4-(tetra-hydro-2H-pyran-4-ylmethoxy)benzoyl]cyclopentanecarboxylic acid [Example 8]	0.012	0.055	1.8	–	–	–
